Source: patent US20240000860A1, “METHODS FOR TREATING AUTISM SPECTRUM DISORDER” (priority 2020, published 2024)
Marks after values point to notes of the source that are not given here.

Tests used:
Assay type in all cases: in vivo
mice [1] = assay: Three-chamber sociability test; settings: for Sociability: behavioral assay summary, Yes/No
Description: (§1) Mice were fed 80% of their total food as non-supplemented food (chow) for 4 days. For the next two weeks, mice were fed 80% of their total food as non-supplemented food and the remaining 20% was supplemented with selected metabolites(s). Mice were fed on food supplemented with various metabolites including 5-dodecacenoate (5D), glycodeoxycholate (GDC), ursodeoxycholate (UDC), or a control food lacking a supplement (CTL). Mouse behavior was tested using an elevated plus maze (FIG. 13), a three-chamber sociability test, and tracking wheel usage. During testing, mice were fed 80% of their total food as non-supplemented food and the remaining 20% was supplemented with the selected metabolites(s).
Additionally, the effect of supplementation with the metabolites on sociability was measured with a three-chamber sociability test (FIG. 21). This chamber tested for responses to social novelty.

[2] = system: gene pathways in mouse brain (prefrontal cortex); assay: RNA sequencing of prefrontal cortex after supplemented metabolites: differentially expressed gene pathways; settings: two weeks supplementation
Description: Transcriptomics data (RNA sequencing) was collected from the prefrontal cortex of 12-week old mice after consuming a low, medium, or high dosage of supplemented metabolites for two weeks. RNA sequencing used brain tissue to evaluate possible correlation between changes in relative changes in gene transcription with changes in behavior. The number of differentially expressed gene pathways at significance level of 0.05, 0.1, and 0.15 was determined (Table 1).

mice [3] = assay: Mouse wheel distance traveled; settings: for night-time activity: after administering metabolites
Description: as §1
Lastly, mice fed with food supplemented with various metabolites were given a mouse wheel and distance traveled was tracked.

mice [4] = assay: Habituation over three days (distance traveled, time in center, ambulatory time); settings: for Habituation exploration / Habituation time in center: behavioral assay summary, Yes/No; for habituation: total distance traveled and exploratory activity: over three days
Description: as §1
Habituation over was tested with the […] (FIG. 16). […] Significance was tested with an ANOVA test.
Habituation was measured by tracking the amount of time spent in the center of the chamber (FIG. 18).
Active time was also measured as total ambulatory time and center ambulatory time.

mice [5] = assay: Elevated plus maze (anxiogenic behavior); settings: for EPM closed arms / EPM open arms: behavioral assay summary, Yes/No; for active time in the closed arms of the maze / time spent in closed arms of elevated plus maze: vs control mice
Description: as §1
Anxiogenic behavior was tested by tracking time spent in closed arms of an elevated plus maze. Control mice were fed food lacking a supplement.

[6] = system: gene pathways in frontal cortex of CNTNAP2 mice; assay: RNA-sequencing and gene set enrichment analysis of frontal cortex; settings: for normalized enrichment score: 5D vs normal chow
Description: In this example, to further investigate 5D's effect on neuronal function, RNA-sequencing was performed on the frontal cortex region of CNTNAP2 mice supplemented with 5D after 3 weeks.
Bar size depicts enrichment score normalized by gene set size, and color depicts fdr corrected p-value as determined by gene set enrichment analysis. […] (CNTNAP-NormC: n=5, CNTNAP-5D: n=9)

CNTNAP2 mice [7] = assay: Lipidomic profiles and triglyceride levels in brain, plasma, liver and stool
Description: Triglycerides were identified as influential in every tissue measured. Lipids were first aggregated into categories (e.g. triglycerides, phosphocholines), then PCA ordination was applied. […] P-values determined from permanova test between treatments are shown as annotations.
Intensities were normalized using CUDA calibration and were reported as log fold change of median of C57BL/6 wild type controls. P-values were derived from Wilcox rank sum test.

CNTNAP2 mice [8] = assay: Gut microbiota taxonomic composition in colons with 5D supplementation
Description: Genera under the family Lachnospiraceae and Ruminococcaceae were consistently seen increased in CNTNAP2 mice and decreased with 5D supplementation.
P-values were determined using permanova and beta-dispersion tests. FIGS. 29B-29N show results of differential abundance test of ASVs aggregated at the genus level. […] P-values were determined using Wilcoxon rank sum test, values were reported as fold change of median of C57BL/6 controls.

[9] = significance level 0.05, 12-week old mice
[10] = significance level 0.1, 12-week old mice
[11] = significance level 0.15, 12-week old mice
[12] = treatment average vs 5D Average
[13] = treatment average vs Control Average
[14] = frontal cortex of CNTNAP2 mice after 3 weeks

`C[C@H](CCC(=O)O)[C@H]1CC[C@H]2[C@@H]3[C@@H](O)C[C@@H]4C[C@H](O)CC[C@]4(C)[C@H]3CC[C@]12C` [UDC, ursodeoxycholate] was tested, and the Sociability (mice [1]) was “No”, the “Differentially Expressed Gene Pathways in Mouse Brain” value [2, 9] was 0 and the “Differentially Expressed Gene Pathways in Mouse Brain” value [2, 10] was 0. The “Differentially Expressed Gene Pathways in Mouse Brain” value [2, 11] was 104, the night-time activity (mice [3]) was “night-time activity increased” and the “Adjusted p value, comparison of average distance traveled” value (“Adjusted p value, comparison” below) (mice [3]; [12]) was 0.00000000. For the same molecule, the “Adjusted p value, comparison” value (mice [3]; [13]) was 0.00000000*, the “Adjusted p value, comparison” value (mice [3]; treatment average vs GDC Average) was 0.0000141 and the Habituation exploration (mice [4]) was “No”. The “Habituation time in center” value (mice [4]) was “No”, the “habituation: total distance traveled and exploratory activity” value (mice [4]) was “did not decrease the total distance traveled on day three compared to day two” and the EPM closed arms (mice [5]) was “Yes”. The EPM open arms (mice [5]) was “No”, the “active time in the closed arms of the maze” value (mice [5]) was “lower active time in the closed arms of the maze than control mice” and the “time spent in closed arms of elevated plus maze” value (“time spent in closed arms” below) (mice [5]) was “spent less time in the closed arms of the maze”.

In the case of `C[C@H](CCC(=O)NCC(=O)O)[C@H]1CC[C@H]2[C@@H]3CC[C@@H]4C[C@H](O)CC[C@]4(C)[C@H]3C[C@H](O)[C@]12C` [GDC, glycodeoxycholate], the Sociability (mice [1]) is reported as “No”, the “Differentially Expressed Gene Pathways in Mouse Brain” value [2, 9] is reported as 153 and the “Differentially Expressed Gene Pathways in Mouse Brain” value [2, 10] is reported as 277. The “Differentially Expressed Gene Pathways in Mouse Brain” value [2, 11] was 291, the night-time activity (mice [3]) was “night-time activity increased” and the “Adjusted p value, comparison” value (mice [3]; [12]) was 0.2762. The “Adjusted p value, comparison” value (mice [3]; [13]) was 0.0000114*, the Habituation exploration (mice [4]) was “Yes” and the “Habituation time in center” value (mice [4]) was “No”. For the same molecule, the “habituation: total distance traveled and exploratory activity” value (mice [4]) was “lower total distance traveled and exploratory activity over three days”, the EPM closed arms (mice [5]) was “No” and the EPM open arms (mice [5]) was “No”. For the same molecule, the “time spent in closed arms” value (mice [5]) was “did not spend significantly more time in closed arms than control mice”.

`N[C@@H](CCC(=O)O)C(=O)O` [Glutamate, glutamate] was tested, and the “Differentially Expressed Gene Pathways in Mouse Brain” value [2, 9] was 0, the “Differentially Expressed Gene Pathways in Mouse Brain” value [2, 10] was 0 and the “Differentially Expressed Gene Pathways in Mouse Brain” value [2, 11] was 107.

`CCCCCCC=CCCCC(=O)O` [5D, 5-dodecenoate] gave a normalized enrichment score ([6]; R-MMU-112314 Neurotransmitter receptors and postsynaptic signal transmission) of −2.033, a normalized enrichment score ([6]; R-MMU-112315 Transmission across Chemical Synapses) of −1.846 and a normalized enrichment score ([6]; R-MMU-112316 Neuronal System) of −2.025. It also gave a normalized enrichment score ([6]; R-MMU-114604 GPVI-mediated activation cascade) of 1.832, a normalized enrichment score ([6]; R-MMU-181431 Acetylcholine binding and downstream events) of −2.154 and a normalized enrichment score ([6]; R-MMU-195721 Signaling by WNT) of −1.416. For the same molecule, the normalized enrichment score ([6]; R-MMU-198933 Immunoregulatory interactions between a Lymphoid and a non-Lymphoid cell) was 1.706, the normalized enrichment score ([6]; R-MMU-202733 Cell surface interactions at the vascular wall) was 1.736 and the normalized enrichment score ([6]; R-MMU-216083 Integrin cell surface interactions) was 1.99. It also gave a normalized enrichment score ([6]; R-MMU-397014 Muscle contraction) of −1.646, a normalized enrichment score ([6]; R-MMU-418360 Platelet calcium homeostasis) of −2.258 and a normalized enrichment score ([6]; R-MMU-419037 NCAM1 interactions) of 1.823. The normalized enrichment score ([6]; R-MMU-622323 Presynaptic nicotinic acetylcholine receptors) was −2.107, the normalized enrichment score ([6]; R-MMU-622327 Postsynaptic nicotinic acetylcholine receptors) was −2.154 and the normalized enrichment score ([6]; R-MMU-629594 Highly calcium permeable postsynaptic nicotinic acetylcholine receptors) was −2.095. The normalized enrichment score ([6]; R-MMU-983168 Antigen processing: Ubiquitination and Proteasome degradation) was −1.55, the normalized enrichment score ([6]; R-MMU-1296071 Potassium Channels) was −1.854 and the normalized enrichment score ([6]; R-MMU-1296072 Voltage gated Potassium channels) was −1.912. The normalized enrichment score ([6]; R-MMU-1442490 Collagen degradation) was 2.005, the normalized enrichment score ([6]; R-MMU-1474228 Degradation of the extracellular matrix) was 1.968 and the normalized enrichment score ([6]; R-MMU-1474244 Extracellular matrix organization) was 1.79. It also gave a normalized enrichment score ([6]; R-MMU-1474290 Collagen formation) of 2.185, a normalized enrichment score ([6]; R-MMU-1650814 Collagen biosynthesis and modifying enzymes) of 2.145 and a normalized enrichment score ([6]; R-MMU-2022090 Assembly of collagen fibrils and other multimeric structures) of 2.261. For the same molecule, the normalized enrichment score ([6]; R-MMU-2022857 Keratan sulfate degradation) was 1.893, the normalized enrichment score ([6]; R-MMU-3928664 Ephrin signaling) was −2.03 and the normalized enrichment score ([6]; R-MMU-5576891 Cardiac conduction) was −1.669. It also gave a normalized enrichment score ([6]; R-MMU-5668599 RHO GTPases Activate NADPH Oxidases) of 1.842, a normalized enrichment score ([6]; R-MMU-5686938 Regulation of TLR by endogenous ligand) of 1.963 and a normalized enrichment score ([6]; R-MMU-6794361 Neurexins and neuroligins) of −1.973. It also gave a normalized enrichment score ([6]; R-MMU-6794362 Protein-protein interactions at synapses) of −2.181, a normalized enrichment score ([6]; R-MMU-6798695 Neutrophil degranulation) of 1.588 and a normalized enrichment score ([6]; R-MMU-6803157 Antimicrobial peptides) of 1.959. The normalized enrichment score ([6]; R-MMU-6811436 COPI-independent Golgi-to-ER retrograde traffic) was −1.957, the normalized enrichment score ([6]; R-MMU-8878159 Transcriptional regulation by RUNX3) was −1.748 and the normalized enrichment score ([6]; R-MMU-8948216 Collagen chain trimerization) was 2.098. For the same molecule, the normalized enrichment score ([6]; R-MMU-8951664 Neddylation) was −1.571, the “expression of collagen, extracellular matrix, cell structure and interaction pathways” value [6, 14] was “increased the expression of pathways such as collagen formation” and the “expression of innate immunity pathways” value [6, 14] was “increased expression of pathways that relate to innate immunity”. For the same molecule, the “expression of synapse-dependent pathways” value [6, 14] was “decreased expression of synapse-dependent pathways”, the “genes significantly modulated (p<0.05)” value [6, 14] was 1438 and the Sociability (mice [1]) was “Yes”. The “time spent with a new mouse, compared among treatments” value (mice [1]; mouse, in vivo) was “spent the most time with a new mouse”, the “time spent with novel mouse ('new') vs known mouse ('old')” value (mice [1]; response to social novelty) was “spent more time with a novel mouse” and the “Differentially Expressed Gene Pathways in Mouse Brain” value [2, 9] was 0. For the same molecule, the “Differentially Expressed Gene Pathways in Mouse Brain” value [2, 10] was 216, the “Differentially Expressed Gene Pathways in Mouse Brain” value [2, 11] was 235 and the night-time activity (mice [3]) was “night-time activity increased”. The “Adjusted p value, comparison” value (mice [3]; [13]) was 0.01466*, the Habituation exploration (mice [4]) was “Yes” and the “Habituation time in center” value (mice [4]) was “Yes”. For the same molecule, the “habituation: total distance traveled and exploratory activity” value (mice [4]) was “lower total distance traveled and exploratory activity over three days”, the center ambulatory time (mice [4]; over time) was “increase in center ambulatory time over time” and the “time spent in the center of the chamber” value (mice [4]; over time) was “increase in time spent in the center of the chamber over time”. For the same molecule, the “lipid profiles in brain and stool” value (CNTNAP2 mice [7]) was “tended to shift brain and stool profiles, though this shift was not statistically significant”, the “lipid profiles in plasma and liver” value (CNTNAP2 mice [7]) was “significantly shift CNTNAP2 mouse lipid profiles in plasma and liver” and the “triglyceride levels in brain, liver, plasma and stool” value (CNTNAP2 mice [7]; dietary supplementation) was “decreased the levels significantly in each of the tissues”. The Romboutsia ilealis levels (CNTNAP2 mice [8]; CNTNAP2 mice) was “found at very high levels in some CNTNAP2 mice”, the “ten genera of bacteria increased in CNTNAP2 mice compared to C57BL/6” value (CNTNAP2 mice [8]; Wilcoxon rank sum test) was “significantly decreased” and the “taxonomic composition of gut microbiota” value (CNTNAP2 mice [8]; oral supplementation, CNTNAP2 mice vs C57BL/6 wild types) was “shifts the taxonomic composition of CNTNAP2 mice”. The EPM closed arms (mice [5]) was “Yes”, the EPM open arms (mice [5]) was “No” and the “active time in the closed arms of the maze” value (mice [5]) was “lower active time in the closed arms of the maze than control mice”. For the same molecule, the “time spent in closed arms” value (mice [5]) was “spent less time in the closed arms of the maze”.

`CC(=O)N[C@@H](CCC(=O)O)C(=O)O` [N-acetyl-L-glutamate] was tested, and the “Differentially Expressed Gene Pathways in Mouse Brain” value [2, 9] was 82, the “Differentially Expressed Gene Pathways in Mouse Brain” value [2, 10] was 145 and the “Differentially Expressed Gene Pathways in Mouse Brain” value [2, 11] was 177.
